Measurements from ChEMBL document CHEMBL5344478, “Cytochrome bd oxidase: an emerging anti-tubercular drug target” (RSC Med Chem, 2024).

How the values were obtained:
[1] = Inhibition of Mycobacterium bovis BCG cytochrome bd oxidase with ATP synthase overexpression inverted membrane vesicles; format: cell membranes, Mycobacterium tuberculosis variant bovis, Membrane vesicle
[2] = Inhibition of wild type Mycobacterium bovis BCG cytochrome bd oxidase assessed as inhibition of oxygen consumption rate measured after 5 days by Methylene blue dye based assay; parameters: species or system Mycobacterium tuberculosis variant bovis

SMILES | IC50 [1] [µM] | IC50 [2] [nM]
c1ccc(CCNc2ncnc3ccccc23)cc1 | 11 | –
FC(F)(F)c1ccc(Oc2ccc(Nc3ncnc4ccccc34)cc2)cc1 | 0.5 | 800
NC(=O)NC(=O)c1nc(-c2cc3ccccc3o2)c(N)nc1N | 21.2 | –
CCc1nc2ccc(Cl)cn2c1C(=O)NCc1ccc(N2CCC(c3ccc(OC(F)(F)F)cc3)CC2)cc1 [TELACEBEC] | 6.2 | –
